Values after ≈ are worked out from the molar mass of the structure shown. Active and inactive are the calls of the source. The calls are words filed in the database; no cut-off is given here.
Columns and labels:
Format in all cases: functional
Staphylococcus aureus [1] = experiment: Antimicrobial activity against Staphylococcus aureus ATCC 29213 after 18 hrs by twofold dilution technique; details: ATCC 29213, 18 h
Bacillus subtilis [2] = experiment: Antimicrobial activity against Bacillus subtilis ATCC 6633 at 400 ug after 18 hrs by disk diffusion method; details: ATCC 6633, 18 h, read-out: DIZ
Staphylococcus aureus [3] = experiment: Antimicrobial activity against Methicillin susceptible Staphylococcus aureus 213/7 by twofold dilution technique
Bacillus subtilis [4] = experiment: Antimicrobial activity against Bacillus subtilis ATCC 6633 after 18 hrs by twofold dilution technique; details: ATCC 6633, 18 h
Bacillus cereus [5] = experiment: Antimicrobial activity against Bacillus cereus ATCC 11778 at 400 ug after 18 hrs by disk diffusion method; details: ATCC 11778, 18 h, read-out: DIZ
Staphylococcus aureus [6] = experiment: Antimicrobial activity against methicillin-resistant Staphylococcus aureus 200/7 by twofold dilution technique
Staphylococcus aureus [7] = experiment: Antimicrobial activity against Staphylococcus aureus NCTC 4163 after 18 hrs by twofold dilution technique; details: NCTC 4163, 18 h
Staphylococcus aureus [8] = experiment: Antimicrobial activity against Methicillin susceptible Staphylococcus aureus 242/7 by twofold dilution technique
Staphylococcus aureus [9] = experiment: Antimicrobial activity against methicillin-resistant Staphylococcus aureus 140/6 by twofold dilution technique
Staphylococcus aureus [10] = experiment: Antimicrobial activity against methicillin-resistant Staphylococcus aureus 141/6 by twofold dilution technique
Staphylococcus aureus [11] = experiment: Antimicrobial activity against methicillin-resistant Staphylococcus aureus 218/7 by twofold dilution technique
[12] = test system: Staphylococcus epidermidis; experiment: Antimicrobial activity against Staphylococcus epidermidis ATCC 12228 at 400 ug after 18 hrs by disk diffusion method; details: ATCC 12228, 18 h, read-out: DIZ
Micrococcus luteus [13] = experiment: Antimicrobial activity against Micrococcus luteus ATCC 10240 at 400 ug after 18 hrs by disk diffusion method; details: ATCC 10240, 18 h, read-out: DIZ
Staphylococcus aureus [14] = experiment: Antimicrobial activity against methicillin-resistant Staphylococcus aureus 217/7 by twofold dilution technique
[15] = test system: Staphylococcus epidermidis; experiment: Antimicrobial activity against Staphylococcus epidermidis ATCC 12228 by twofold dilution technique
Staphylococcus aureus [16] = experiment: Antimicrobial activity against Staphylococcus aureus ATCC 29213 at 400 ug after 18 hrs by disk diffusion method; details: ATCC 29213, 18 h, read-out: DIZ
Enterococcus hirae [17] = experiment: Antimicrobial activity against Enterococcus hirae ATCC 10541 after 18 hrs by twofold dilution technique; details: ATCC 10541, 18 h
Staphylococcus aureus [18] = experiment: Antimicrobial activity against Methicillin susceptible Staphylococcus aureus 212/7 by twofold dilution technique
Micrococcus luteus [19] = experiment: Antimicrobial activity against Micrococcus luteus ATCC 9341 after 18 hrs by twofold dilution technique; details: ATCC 9341, 18 h
Staphylococcus aureus [20] = experiment: Antimicrobial activity against methicillin-resistant Staphylococcus aureus 144/6 by twofold dilution technique
Staphylococcus aureus [21] = experiment: Antimicrobial activity against Methicillin susceptible Staphylococcus aureus 206/7 by twofold dilution technique
Staphylococcus aureus [22] = experiment: Antimicrobial activity against methicillin-resistant Staphylococcus aureus 143/6 by twofold dilution technique
Staphylococcus aureus [23] = experiment: Antimicrobial activity against Staphylococcus aureus ATCC 25923 after 18 hrs by twofold dilution technique; details: ATCC 25923, 18 h
Bacillus cereus [24] = experiment: Antimicrobial activity against Bacillus cereus ATCC 11778 after 18 hrs by twofold dilution technique; details: ATCC 11778, 18 h
Staphylococcus aureus [25] = experiment: Antimicrobial activity against methicillin-resistant Staphylococcus aureus 236/7 by twofold dilution technique
Micrococcus luteus [26] = experiment: Antimicrobial activity against Micrococcus luteus ATCC 9341 at 400 ug after 18 hrs by disk diffusion method
Staphylococcus aureus [27] = experiment: Antimicrobial activity against Methicillin susceptible Staphylococcus aureus 237/7 by twofold dilution technique
Staphylococcus aureus [28] = experiment: Antimicrobial activity against Staphylococcus aureus NCTC 4163 at 400 ug after 18 hrs by disk diffusion method; details: NCTC 4163, 18 h, read-out: DIZ
Staphylococcus aureus [29] = experiment: Antimicrobial activity against Methicillin susceptible Staphylococcus aureus 207/7 by twofold dilution technique
Staphylococcus aureus [30] = experiment: Antimicrobial activity against Methicillin susceptible Staphylococcus aureus 239/7 by twofold dilution technique
Enterococcus hirae [31] = experiment: Antimicrobial activity against Enterococcus hirae ATCC 10541 at 400 ug after 18 hrs by disk diffusion method
Staphylococcus aureus [32] = experiment: Antimicrobial activity against methicillin-resistant Staphylococcus aureus 136/6 by twofold dilution technique
Staphylococcus aureus [33] = experiment: Antimicrobial activity against Methicillin susceptible Staphylococcus aureus 243/7 by twofold dilution technique
Micrococcus luteus [34] = experiment: Antimicrobial activity against Micrococcus luteus ATCC 10240 by twofold dilution technique
Staphylococcus aureus [35] = experiment: Antimicrobial activity against Staphylococcus aureus ATCC 6538 at 400 ug after 18 hrs by disk diffusion method; details: ATCC 6538, 18 h, read-out: DIZ
Staphylococcus aureus [36] = experiment: Antimicrobial activity against Staphylococcus aureus ATCC 25923 at 400 ug after 18 hrs by disk diffusion method; details: ATCC 25923, 18 h, read-out: DIZ
Staphylococcus aureus [37] = experiment: Antimicrobial activity against Methicillin susceptible Staphylococcus aureus 208/7 by twofold dilution technique
Staphylococcus aureus [38] = experiment: Antimicrobial activity against Staphylococcus aureus ATCC 6538 after 18 hrs by twofold dilution technique; details: ATCC 6538, 18 h
Staphylococcus aureus [39] = experiment: Antimicrobial activity against methicillin-resistant Staphylococcus aureus 146/6 by twofold dilution technique
Staphylococcus aureus [40] = experiment: Antimicrobial activity against Methicillin susceptible Staphylococcus aureus 238/7 by twofold dilution technique

Row | Structure (SMILES) | MIC (Staphylococcus aureus [1]) [µg/mL] | zone of inhibition at 400 µg/disc (Bacillus subtilis [2]) [mm] | MIC (Staphylococcus aureus [3]) [µg/mL] | MIC (Bacillus subtilis [4]) [µg/mL] | zone of inhibition at 400 µg/disc (Bacillus cereus [5]) [mm] | MIC (Staphylococcus aureus [6]) [µg/mL] | MIC (Staphylococcus aureus [7]) [µg/mL] | MIC (Staphylococcus aureus [8]) [µg/mL] | MIC (Staphylococcus aureus [9]) [µg/mL] | MIC (Staphylococcus aureus [10]) [µg/mL] | MIC (Staphylococcus aureus [11]) [µg/mL] | zone of inhibition at 400 µg/disc [12] [mm] | zone of inhibition at 400 µg/disc (Micrococcus luteus [13]) [mm] | MIC (Staphylococcus aureus [14]) [µg/mL] | MIC [15] [µg/mL] | zone of inhibition at 400 µg/disc (Staphylococcus aureus [16]) [mm] | MIC (Enterococcus hirae [17]) [µg/mL] | MIC (Staphylococcus aureus [18]) [µg/mL] | MIC (Micrococcus luteus [19]) [µg/mL] | MIC (Staphylococcus aureus [20]) [µg/mL] | other results
1 | Cc1cc2c(c(O)c1-c1c(C)cc3c(c1O)/C(=C/NCCC(=O)N[C@@H](Cc1c[nH]cn1)C(=O)O)C(=O)C(O)=C3C(C)C)/C(=C/NCCC(=O)N[C@@H](Cc1c[nH]cn1)C(=O)O)C(=O)C(O)=C2C(C)C | 25 (≈ 26.7 µM) | 13 | 100 (≈ 107 µM) | 200 (≈ 214 µM) | 14 | 100 (≈ 107 µM) | 50 (≈ 53.5 µM) | 25 (≈ 26.7 µM) | 100 (≈ 107 µM) | 100 (≈ 107 µM) | 100 (≈ 107 µM) | 14 | 16 | 100 (≈ 107 µM) | 200 (≈ 214 µM) | 13 | 50 (≈ 53.5 µM) | 100 (≈ 107 µM) | 50 (≈ 53.5 µM) | 100 (≈ 107 µM) | MIC (Staphylococcus aureus [21]): 50 µg/mL (≈ 53.5 µM); MIC (Staphylococcus aureus [22]): 100 µg/mL (≈ 107 µM); MIC (Staphylococcus aureus [23]): 50 µg/mL (≈ 53.5 µM); MIC (Bacillus cereus [24]): 50 µg/mL (≈ 53.5 µM); MIC (Staphylococcus aureus [25]): 50 µg/mL (≈ 53.5 µM); diameter of the inhibition zone (DIZ) (Micrococcus luteus [26]): inactive; MIC (Staphylococcus aureus [27]): 50 µg/mL (≈ 53.5 µM); zone of inhibition at 400 µg/disc (Staphylococcus aureus [28]): 15 mm; MIC (Staphylococcus aureus [29]): 100 µg/mL (≈ 107 µM); MIC (Staphylococcus aureus [30]): 100 µg/mL (≈ 107 µM); zone of inhibition at 400 µg/disc (Enterococcus hirae [31]; ATCC 10541, 18 h, read-out: DIZ): 12 mm; MIC (Staphylococcus aureus [32]): 25 µg/mL (≈ 26.7 µM); MIC (Staphylococcus aureus [33]): 100 µg/mL (≈ 107 µM); MIC (Micrococcus luteus [34]): 50 µg/mL (≈ 53.5 µM); zone of inhibition at 400 µg/disc (Staphylococcus aureus [35]): 15 mm; zone of inhibition at 400 µg/disc (Staphylococcus aureus [36]): 15 mm; MIC (Staphylococcus aureus [37]): 100 µg/mL (≈ 107 µM); MIC (Staphylococcus aureus [38]): 25 µg/mL (≈ 26.7 µM); MIC (Staphylococcus aureus [39]): 50 µg/mL (≈ 53.5 µM); MIC (Staphylococcus aureus [40]): 50 µg/mL (≈ 53.5 µM)
2 | COCCOCCOCCN/N=C/c1c(O)c(O)c(C(C)C)c2cc(C)c(-c3c(C)cc4c(C(C)C)c(O)c(O)c(/C=N/NCCOCCOCCOC)c4c3O)c(O)c12 | 200 (≈ 238 µM) | 11 | 400 (≈ 477 µM) | > 400 | 12 | 400 (≈ 477 µM) | 200 (≈ 238 µM) | 100 (≈ 119 µM) | 200 (≈ 238 µM) | 400 (≈ 477 µM) | 400 (≈ 477 µM) | 14 | 13 | 200 (≈ 238 µM) | > 400 | 12 | 200 (≈ 238 µM) | 400 (≈ 477 µM) | 400 (≈ 477 µM) | 400 (≈ 477 µM) | MIC (Staphylococcus aureus [21]): 200 µg/mL (≈ 238 µM); MIC (Staphylococcus aureus [22]): 400 µg/mL (≈ 477 µM); MIC (Staphylococcus aureus [23]): 200 µg/mL (≈ 238 µM); MIC (Bacillus cereus [24]): 100 µg/mL (≈ 119 µM); MIC (Staphylococcus aureus [25]): 100 µg/mL (≈ 119 µM); diameter of the inhibition zone (DIZ) (Micrococcus luteus [26]): inactive; MIC (Staphylococcus aureus [27]): 400 µg/mL (≈ 477 µM); zone of inhibition at 400 µg/disc (Staphylococcus aureus [28]): 11 mm; MIC (Staphylococcus aureus [29]): 400 µg/mL (≈ 477 µM); MIC (Staphylococcus aureus [30]): 400 µg/mL (≈ 477 µM); diameter of the inhibition zone (DIZ) (Enterococcus hirae [31]): inactive; MIC (Staphylococcus aureus [32]): 200 µg/mL (≈ 238 µM); MIC (Staphylococcus aureus [33]): 400 µg/mL (≈ 477 µM); MIC (Micrococcus luteus [34]): 400 µg/mL (≈ 477 µM); zone of inhibition at 400 µg/disc (Staphylococcus aureus [35]): 11 mm; zone of inhibition at 400 µg/disc (Staphylococcus aureus [36]): 12 mm; MIC (Staphylococcus aureus [37]): 400 µg/mL (≈ 477 µM); MIC (Staphylococcus aureus [38]): 200 µg/mL (≈ 238 µM); MIC (Staphylococcus aureus [39]): 200 µg/mL (≈ 238 µM); MIC (Staphylococcus aureus [40]): 400 µg/mL (≈ 477 µM)
3 | Cc1cc2c(c(O)c1-c1c(C)cc3c(c1O)/C(=C/NCC1COCCOCCOCCOCCOCCO1)C(=O)C(O)=C3C(C)C)/C(=C/NCC1COCCOCCOCCOCCOCCO1)C(=O)C(O)=C2C(C)C (centres undefined) | 100 (≈ 93.5 µM) | 11 | 100 (≈ 93.5 µM) | 200 (≈ 187 µM) | 11 | 200 (≈ 187 µM) | 100 (≈ 93.5 µM) | 100 (≈ 93.5 µM) | 100 (≈ 93.5 µM) | 100 (≈ 93.5 µM) | 100 (≈ 93.5 µM) | 12 | 14 | 200 (≈ 187 µM) | > 400 | 11 | 100 (≈ 93.5 µM) | 100 (≈ 93.5 µM) | 100 (≈ 93.5 µM) | 100 (≈ 93.5 µM) | MIC (Staphylococcus aureus [21]): 100 µg/mL (≈ 93.5 µM); MIC (Staphylococcus aureus [22]): 100 µg/mL (≈ 93.5 µM); MIC (Staphylococcus aureus [23]): 100 µg/mL (≈ 93.5 µM); MIC (Bacillus cereus [24]): 100 µg/mL (≈ 93.5 µM); MIC (Staphylococcus aureus [25]): 100 µg/mL (≈ 93.5 µM); diameter of the inhibition zone (DIZ) (Micrococcus luteus [26]): inactive; MIC (Staphylococcus aureus [27]): 100 µg/mL (≈ 93.5 µM); MIC (Staphylococcus aureus [29]): 200 µg/mL (≈ 187 µM); MIC (Staphylococcus aureus [30]): 100 µg/mL (≈ 93.5 µM); diameter of the inhibition zone (DIZ) (Enterococcus hirae [31]): inactive; MIC (Staphylococcus aureus [32]): 100 µg/mL (≈ 93.5 µM); MIC (Staphylococcus aureus [33]): 200 µg/mL (≈ 187 µM); MIC (Micrococcus luteus [34]): 100 µg/mL (≈ 93.5 µM); zone of inhibition at 400 µg/disc (Staphylococcus aureus [35]): 11 mm; zone of inhibition at 400 µg/disc (Staphylococcus aureus [36]): 11 mm; MIC (Staphylococcus aureus [37]): 200 µg/mL (≈ 187 µM); MIC (Staphylococcus aureus [38]): 100 µg/mL (≈ 93.5 µM); MIC (Staphylococcus aureus [39]): 100 µg/mL (≈ 93.5 µM); MIC (Staphylococcus aureus [40]): 100 µg/mL (≈ 93.5 µM)
